Experimental data: the supplement of paper PMC10307832

How the values were obtained:
Test in all cases: relative viability (nuclei count vs DMSO), 5 days (fraction); higher = more cells survive
[1] = compound: C1=CC=C2C(=C1)N=C(S2)C(C#N)C3=NC(=NC=C3)NCCC4=CN=CC=C4 + O=C(c1cc(Cc2n[nH]c(=O)c3ccccc23)ccc1F)N1CCN(C(=O)C2CC2)CC1 [Olaparib] (partner 8 µM)
Procedure, shortened: (§1)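 Nuclei were stained with Hoechst during a one-step fixation (final 0.05% Triton X-100, 1% formaldehyde, 1 ug/ml Hoechst) carried out 5 days after dosing, then counted on 4× images. The cells, lung cancer lines in 1536-well plates, had been dosed by pin tool the day after seeding with one drug alone or a fixed anchor-drug dose plus five library-drug doses (not always all listed) in √10 steps. Relative viability is the nuclei count in treated wells divided by that in vehicle wells, and each value is the median of duplicate plates.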

NVP-TAE684 + Foretinib = compound: COc1cc(N2CCC(N3CCN(C)CC3)CC2)ccc1Nc1ncc(Cl)c(Nc2ccccc2S(=O)(=O)C(C)C)n1 [NVP-TAE684] + COc1cc2c(Oc3ccc(NC(=O)C4(C(=O)Nc5ccc(F)cc5)CC4)cc3F)ccnc2cc1OCCCN1CCOCC1 [Foretinib] (partner 0.25 µM)
Procedure, shortened: as §1

NVP-TAE684 + Pemetrexed = compound: COc1cc(N2CCC(N3CCN(C)CC3)CC2)ccc1Nc1ncc(Cl)c(Nc2ccccc2S(=O)(=O)C(C)C)n1 [NVP-TAE684] + Nc1nc2[nH]cc(CCc3ccc(C(=O)N[C@@H](CCC(=O)O)C(=O)O)cc3)c2c(=O)[nH]1 [Pemetrexed] (partner 0.2 µM)
Procedure, shortened: as §1

CUDC-101 + Pemetrexed = compound: C#Cc1cccc(Nc2ncnc3cc(OC)c(OCCCCCCC(=O)NO)cc23)c1 [CUDC-101] + Nc1nc2[nH]cc(CCc3ccc(C(=O)N[C@@H](CCC(=O)O)C(=O)O)cc3)c2c(=O)[nH]1 [Pemetrexed] (partner 0.2 µM)
Procedure, shortened: as §1

NVP-TAE684 + Luminespib = compound: COc1cc(N2CCC(N3CCN(C)CC3)CC2)ccc1Nc1ncc(Cl)c(Nc2ccccc2S(=O)(=O)C(C)C)n1 [NVP-TAE684] + CCNC(=O)c1noc(-c2cc(C(C)C)c(O)cc2O)c1-c1ccc(CN2CCOCC2)cc1 [Luminespib] (partner 0.01 µM)
Procedure, shortened: as §1

Work on HARA yielded a relative viability ([1]; first compound 0.005 µM) of 0.773, a relative viability ([1]; first compound 0.01581 µM) of 0.659 and a relative viability ([1]; first compound 0.05 µM) of 0.942. For the same cell line, the relative viability ([1]; first compound 0.1581 µM) was 0.822, the relative viability ([1]; first compound 0.5 µM) was 0.954 and the relative viability (NVP-TAE684 + Foretinib; first compound 0.2 µM) was 0.886. It also gave a relative viability (NVP-TAE684 + Foretinib; first compound 0.6325 µM) of 0.619, a relative viability (NVP-TAE684 + Foretinib; first compound 2 µM) of 0.517 and a relative viability (NVP-TAE684 + Pemetrexed; first compound 0.2 µM) of 0.262. It also gave a relative viability (NVP-TAE684 + Pemetrexed; first compound 0.6325 µM) of 0.211, a relative viability (NVP-TAE684 + Pemetrexed; first compound 2 µM) of 0.233 and a relative viability (CUDC-101 + Pemetrexed; first compound 0.01 µM) of 0.253. For the same cell line, the relative viability (CUDC-101 + Pemetrexed; first compound 0.03162 µM) was 0.237, the relative viability (CUDC-101 + Pemetrexed; first compound 0.3162 µM) was 0.243 and the relative viability (CUDC-101 + Pemetrexed; first compound 1 µM) was 0.176. It also gave a relative viability (NVP-TAE684 + Luminespib; first compound 0.2 µM) of 0.991, a relative viability (NVP-TAE684 + Luminespib; first compound 0.6325 µM) of 0.517 and a relative viability (NVP-TAE684 + Luminespib; first compound 2 µM) of 0.389.

For NCI-H1651, the relative viability ([1]; first compound 0.005 µM) was 0.178, the relative viability ([1]; first compound 0.01581 µM) was 0.17 and the relative viability ([1]; first compound 0.05 µM) was 0.172. It also gave a relative viability ([1]; first compound 0.1581 µM) of 0.182, a relative viability ([1]; first compound 0.5 µM) of 0.163 and a relative viability (NVP-TAE684 + Foretinib; first compound 0.2 µM) of 0.802. For the same cell line, the relative viability (NVP-TAE684 + Foretinib; first compound 0.6325 µM) was 0.883, the relative viability (NVP-TAE684 + Foretinib; first compound 2 µM) was 0.774 and the relative viability (NVP-TAE684 + Pemetrexed; first compound 0.2 µM) was 0.594. For the same cell line, the relative viability (NVP-TAE684 + Pemetrexed; first compound 0.6325 µM) was 0.566, the relative viability (NVP-TAE684 + Pemetrexed; first compound 2 µM) was 0.565 and the relative viability (CUDC-101 + Pemetrexed; first compound 0.01 µM) was 0.614. It also gave a relative viability (CUDC-101 + Pemetrexed; first compound 0.03162 µM) of 0.579, a relative viability (CUDC-101 + Pemetrexed; first compound 0.1 µM) of 0.579 and a relative viability (CUDC-101 + Pemetrexed; first compound 0.3162 µM) of 0.577. For the same cell line, the relative viability (CUDC-101 + Pemetrexed; first compound 1 µM) was 0.523, the relative viability (NVP-TAE684 + Luminespib; first compound 0.2 µM) was 1.24 and the relative viability (NVP-TAE684 + Luminespib; first compound 2 µM) was 0.693.

Cell Line NCI-H2405 has a relative viability ([1]; first compound 0.005 µM) of 0.797, a relative viability ([1]; first compound 0.01581 µM) of 0.835 and a relative viability ([1]; first compound 0.05 µM) of 0.897. It also gave a relative viability ([1]; first compound 0.1581 µM) of 0.867, a relative viability ([1]; first compound 0.5 µM) of 0.77 and a relative viability (NVP-TAE684 + Foretinib; first compound 0.2 µM) of 1. The relative viability (NVP-TAE684 + Foretinib; first compound 0.6325 µM) was 0.966, the relative viability (NVP-TAE684 + Foretinib; first compound 2 µM) was 0.575 and the relative viability (NVP-TAE684 + Pemetrexed; first compound 0.2 µM) was 1.17. It also gave a relative viability (NVP-TAE684 + Pemetrexed; first compound 0.6325 µM) of 0.901, a relative viability (NVP-TAE684 + Pemetrexed; first compound 2 µM) of 0.567 and a relative viability (CUDC-101 + Pemetrexed; first compound 0.01 µM) of 1.07. It also gave a relative viability (CUDC-101 + Pemetrexed; first compound 0.03162 µM) of 1, a relative viability (CUDC-101 + Pemetrexed; first compound 0.1 µM) of 1.05 and a relative viability (CUDC-101 + Pemetrexed; first compound 0.3162 µM) of 1.17. For the same cell line, the relative viability (CUDC-101 + Pemetrexed; first compound 1 µM) was 0.967, the relative viability (NVP-TAE684 + Luminespib; first compound 0.2 µM) was 0.703 and the relative viability (NVP-TAE684 + Luminespib; first compound 0.6325 µM) was 0.694. The relative viability (NVP-TAE684 + Luminespib; first compound 2 µM) was 0.386.

For NCI-H596, the relative viability ([1]; first compound 0.005 µM) was 0.599, the relative viability ([1]; first compound 0.01581 µM) was 0.59 and the relative viability ([1]; first compound 0.05 µM) was 0.608. It also gave a relative viability ([1]; first compound 0.1581 µM) of 0.632, a relative viability ([1]; first compound 0.5 µM) of 0.643 and a relative viability (NVP-TAE684 + Foretinib; first compound 0.2 µM) of 0.932. The relative viability (NVP-TAE684 + Foretinib; first compound 0.6325 µM) was 0.734, the relative viability (NVP-TAE684 + Foretinib; first compound 2 µM) was 0.649 and the relative viability (NVP-TAE684 + Pemetrexed; first compound 0.2 µM) was 0.56. For the same cell line, the relative viability (NVP-TAE684 + Pemetrexed; first compound 0.6325 µM) was 0.43, the relative viability (NVP-TAE684 + Pemetrexed; first compound 2 µM) was 0.45 and the relative viability (CUDC-101 + Pemetrexed; first compound 0.01 µM) was 0.466. The relative viability (CUDC-101 + Pemetrexed; first compound 0.03162 µM) was 0.538, the relative viability (CUDC-101 + Pemetrexed; first compound 0.1 µM) was 0.482 and the relative viability (CUDC-101 + Pemetrexed; first compound 0.3162 µM) was 0.644. It also gave a relative viability (CUDC-101 + Pemetrexed; first compound 1 µM) of 0.472, a relative viability (NVP-TAE684 + Luminespib; first compound 0.2 µM) of 0.914 and a relative viability (NVP-TAE684 + Luminespib; first compound 0.6325 µM) of 0.832. The relative viability (NVP-TAE684 + Luminespib; first compound 2 µM) was 0.758.
